PMC7345279 (Antibiotics, 2020)
Several values for one entry are separate records, joined by “and”; a condition that tells them apart may be missing. Identical values can stand only once. Like-named read-outs stand apart in the source and are kept apart here.

Tests used:
plasma proteins = settings: cited from earlier work
[1] = Unbound fraction / protein binding of FLU in pooled plasma, alone and with a second drug (ultrafiltration, LC-MS/MS); settings: human, plasma
human plasma proteins = assay: as above; settings: for FLU bound %: Pooled Plasma; for %Unbound / Measured Unbound Conc in Plasma / Measured Total Conc in Plasma: pooled plasma, alone, listed as FLU alone
HSA = HSA (Homo sapiens, UniProt P02768); assay: Binding of FLU to HSA solutions (40 and 25 g/L), alone and with anticancer agents (ultrafiltration, LC-MS/MS); settings: for % Unb / Total conc / Unb Conc: alone
Chain of HSA (P02768 25-609): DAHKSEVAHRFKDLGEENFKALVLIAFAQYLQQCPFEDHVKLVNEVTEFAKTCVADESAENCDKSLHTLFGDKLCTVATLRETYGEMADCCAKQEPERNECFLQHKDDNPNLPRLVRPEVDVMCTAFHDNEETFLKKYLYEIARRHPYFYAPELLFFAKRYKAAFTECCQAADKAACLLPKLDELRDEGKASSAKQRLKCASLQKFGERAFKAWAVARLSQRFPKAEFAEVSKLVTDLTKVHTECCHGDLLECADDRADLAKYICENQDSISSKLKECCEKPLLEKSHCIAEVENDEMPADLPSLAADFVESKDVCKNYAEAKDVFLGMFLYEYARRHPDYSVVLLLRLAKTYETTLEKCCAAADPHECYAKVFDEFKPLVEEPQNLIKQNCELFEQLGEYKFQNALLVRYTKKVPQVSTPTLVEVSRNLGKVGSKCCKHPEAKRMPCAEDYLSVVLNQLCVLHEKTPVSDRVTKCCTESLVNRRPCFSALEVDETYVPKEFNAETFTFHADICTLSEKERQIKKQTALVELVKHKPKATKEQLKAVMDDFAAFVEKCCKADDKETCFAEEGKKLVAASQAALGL

[2] = test system: α-1-acid glycoprotein (AGP); assay: Binding of FLU to AGP solutions (0.9 and […]), alone and with IMA (ultrafiltration, LC-MS/MS); settings: for % Unb / Total conc / Unb Conc: alone

Cc1ccc(NC(=O)c2ccc(CN3CCN(C)CC3)cc2)cc1Nc1nccc(-c2cccnc2)n1 [IMA, imatinib]
bound to human plasma proteins (plasma proteins; ref 54): 95%

Cc1onc(-c2c(F)cccc2Cl)c1C(=O)N[C@@H]1C(=O)N2[C@@H]1SC(C)(C)[C@@H]2C(=O)O [FLU, Flucloxacillin]
fraction unbound at 30 min, 0.2 µg/mL ([1]; %Unbound, pooled plasma, FLU 0.2 µg/mL, alone): 0.0066 | fraction unbound at 30 min, 20 µg/mL ([1]; %Unbound, pooled plasma, FLU 20 µg/mL, alone): 0.0059 | fraction unbound at 30 min ([1]; protein binding of FLU, spiked pooled plasma, 37 °C, 30 min, range over tested FLU concentrations): 0.0059 to 0.0098 | FLU bound % (human plasma proteins; FLU 0.2 µg/mL): 99.11% | FLU bound % (human plasma proteins; FLU 20 µg/mL): 98.85% | %Unbound (human plasma proteins; FLU 0.2 µg/mL): 0.7% and 0.78% | Measured Unbound Conc in Plasma (human plasma proteins; FLU 0.2 µg/mL): 0.0016 µg/mL and 0.0023 µg/mL | %Unbound (human plasma proteins; FLU 20 µg/mL): 0.98% and 0.76% and 0.73% | Measured Unbound Conc in Plasma (human plasma proteins; FLU 20 µg/mL): 0.1275 µg/mL and 0.21 µg/mL and 0.1766 µg/mL and 0.152 µg/mL | Measured Total Conc in Plasma (human plasma proteins; FLU spiked 0.2 µg/mL): 0.24 µg/mL and 0.23 µg/mL and 0.28 µg/mL | Measured Total Conc in Plasma (human plasma proteins; FLU spiked 20 µg/mL): 21.76 µg/mL and 21.18 µg/mL and 23.09 µg/mL and 20.722 µg/mL | FLU bound % (HSA; Albumin (25 g/l), FLU 0.2 µg/mL): 94.91% | FLU bound % (HSA; Albumin (25 g/l), FLU 20 µg/mL): 93.49% | FLU bound % (HSA; Albumin (40 g/l), FLU 0.2 µg/mL): 94.39% | FLU bound % (HSA; Albumin (40 g/l), FLU 20 µg/mL): 93.98% | % Unb (HSA; HSA 25 g/L, FLU 0.2 µg/mL): 5.09% | Total conc (HSA; HSA 25 g/L, FLU 0.2 µg/mL): 0.232 µg/mL | Unb Conc (HSA; HSA 25 g/L, FLU 0.2 µg/mL): 0.012 µg/mL | % Unb (HSA; HSA 25 g/L, FLU 20 µg/mL): 6.51% | Total conc (HSA; HSA 25 g/L, FLU 20 µg/mL): 18.214 µg/mL | Unb Conc (HSA; HSA 25 g/L, FLU 20 µg/mL): 1.182 µg/mL | % Unb (HSA; HSA 40 g/L, FLU 0.2 µg/mL): 5.61% | Total conc (HSA; HSA 40 g/L, FLU 0.2 µg/mL): 0.197 µg/mL | Unb Conc (HSA; HSA 40 g/L, FLU 0.2 µg/mL): 0.011 µg/mL | % Unb (HSA; HSA 40 g/L, FLU 20 µg/mL): 6.02% | Total conc (HSA; HSA 40 g/L, FLU 20 µg/mL): 16.04 µg/mL | Unb Conc (HSA; HSA 40 g/L, FLU 20 µg/mL): 0.966 µg/mL | fraction unbound at 30 min (HSA; human): 0.0561 to 0.0602 | binding to plasma proteins (plasma proteins; healthy patients): 95–97% | typical unbound fraction (plasma proteins; patients with normal HSA (>42 g/L)): 3–5% | bound to plasma proteins (plasma proteins; ref 13, 17, 38): more than 95% | protein binding of FLU in other studies (plasma proteins; ref 36): 95% | protein binding of FLU in other studies (plasma proteins; ref 38): 93% | % Unb ([2]; AGP 0.9 g/L, FLU 0.2 µg/mL): 39.08% | Total conc ([2]; AGP 0.9 g/L, FLU 0.2 µg/mL): 0.261 µg/mL | Unb Conc ([2]; AGP 0.9 g/L, FLU 0.2 µg/mL): 0.1019 µg/mL | % Unb ([2]; AGP 0.9 g/L, FLU 20 µg/mL): 22.11% | Total conc ([2]; AGP 0.9 g/L, FLU 20 µg/mL): 21.060 µg/mL | Unb Conc ([2]; AGP 0.9 g/L, FLU 20 µg/mL): 4.6563 µg/mL | % Unb ([2]; AGP […], FLU 0.2 µg/mL): 32.04% | Total conc ([2]; AGP […], FLU 0.2 µg/mL): 0.266 µg/mL | Unb Conc ([2]; AGP […], FLU 0.2 µg/mL): 0.0852 µg/mL | % Unb ([2]; AGP […], FLU 20 µg/mL): 20.62% | Total conc ([2]; AGP […], FLU 20 µg/mL): 20.745 µg/mL | Unb Conc ([2]; AGP […], FLU 20 µg/mL): 4.2773 µg/mL | FLU bound % ([2]; AGPs (0.9 g/l), FLU 0.2 µg/mL): 60.92% | FLU bound % ([2]; AGPs ([…]), FLU 0.2 µg/mL): 67.96% | FLU bound % ([2]; AGPs ([…]), FLU 20 µg/mL): 79.38%

O=c1[nH]cc(F)c(=O)[nH]1 [5-FU, 5-fluorouracil]
protein binding (plasma proteins; ref 63): 8–12%
